# Reference: patent US7572890B2, “Recombinant human mannan-building proteins” (Fuso Pharmaceutical Industries, Ltd., priority 1998, dated 2009)
# pIC50: −log10 of the molar value. Read-outs that look alike come from different tables or passages of the source.
# How the values were obtained:
# [1] = biological target: T1, rhMBP (with Vitamin C) (Homo sapiens, UniProt P11226); assay: Sugar inhibition of rhMBP (cultured with vitamin C) binding to mannan (ELISA)
# T1 construct: made in house; host or cells: CHO DG44 (dhfr-), neomycin/MTX-resistant clones; purified from culture supernatant on mannan-agarose
# [2] = biological target: T2, rhMBP (without Vitamin C) (Homo sapiens, UniProt P11226); assay: Sugar inhibition of rhMBP (cultured without vitamin C) binding to mannan (ELISA)
# T2 construct: made in house; host or cells: CHO DG44 (dhfr-), neomycin/MTX-resistant clones; purified from culture supernatant on mannan-agarose
# [3] = biological target: T3, native hMBP (Homo sapiens, UniProt P11226); assay: Sugar inhibition of native hMBP binding to mannan (ELISA)
# T3 construct: samples of stepwise dilution of the native hMBP, rhMBP (cultured with vitamin C), rhMBP (cultured without vitamin C)
# [4] = system: Influenza A virus A/Ibaraki/l/90 (H3N2); assay: Hemagglutination Inhibition (HI) activities; format: cell-based; details: for Minimum Protein Concentration for HI Activities: 16HAU virus, chicken erythrocytes
# [5] = system: Influenza A virus A/Ibaraki/l/90; assay: Neutralization activities (focus reduction on MDCK cells); format: cell-based
# [6] = system: Influenza A virus A/Ibaraki/1/90; format: cell-based; details: 0.5 and 1 μg/ml, three days; FIG. 21
# [7] = system: guinea pig complement; assay: Complement activation: hemolysis of mannan-sensitized sheep erythrocyte
# [8] = system: HIV-1 (HIV-gp120, HIV-gp160); assay: Binding of rhMBP to blotted viral structural proteins: HIV-1; details: rhMBP 1.0 μg/ml; FIG. 20
# Description: (§1) Binding activities on rhMBP to HIV-1, HBV and Influenza A virus were determined by electrophoresing the following viral structural proteins, transferring them to membranes, binding thereto rhMBP and detecting them with labeled antibody.
# (§2) Necessary amounts of viral structural proteins for the electrophoresis were 0.25 μg of HIV-gp120 (HIVIIIB-gp120) (ADVANCED BIOTECHNOLOGIES INCORPORATED (ABI)), 0.25 μg of HIV-gp160 (HIVIIIB-gp160) (ABI), 10 μg of HBS (Hepatitis B Surface Antigen (HBsAg) (ABI), Subtype ad), Influenza A virus (IAV; presented by The Research Foundation For Osaka University Research Institute for Microbial Diseases), 5 μg of H1N1 Yamagata virion and 5 μg of H3N2 Beijin virion.
# (§3) SDS-PAGE employed polyacrylamide gel having the concentration gradient of 4˜20%, and HIV-1 and HBS were electrophoresed under reducing condition. After the electrophoresis, they were transferred to Immobilon-P^SQ transfer membrane (Millipore) with NOVA BLOT™ electrophoretic transfer unit (Pharmacia) by using semi-dry electroblot buffer kit (Owl Scientific). After such transfer, they were blocked with BLOCKACE™ blocking solution (Dainippon Pharmaceutical) at room temperature for one hour. […]
# [9] = system: Influenza A virus (H1N1 Yamagata virion, H3N2 Beijin virion); assay: Binding of rhMBP to blotted viral structural proteins: Influenza A virus; details: rhMBP 1.0 μg/ml; FIG. 20
# Description: as §1, §2, §3
# [10] = system: HBV (Hepatitis B Surface Antigen); assay: Binding of rhMBP to blotted viral structural proteins: HBV; details: rhMBP 1.0 μg/ml; FIG. 20
# Description: as §1, §2, §3
# [11] = Sugar binding activity of MBP on mannan-coated plates (ELISA); details: Table 1
# Description: Microtiter Plates were treated with 100 μl of coating buffer (15 mM sodium carbonate, 35 mM sodium hydrogen carbonate, 0.05% sodium azide, pH 9.6) containing mannan (10 μg/ml:SIGMA) at 4° C. overnight. After each treatment step, the plates were washed three times with TBSNTC solution (TBS, 0.05% sodium azide, 0.05% TWEEN 20 (Registered Trade Mark), 5 mM calcium chloride). After completing the coating of the plates, the plates were treated and blocked with BLOCKACE™ blocking solution (Dainippon Pharmaceutical) at room temperature for one hour.
# After washing them, samples of stepwise dilution of the native hMBP, rhMBP (cultured with vitamin C), rhMBP (cultured without vitamin C) having the concentration of 200, 100, 50, 25, 12.5, 6.25 ng/ml, combination samples of 200 ng/ml of each hMBP with EDTA added to be its concentration of 10 mM, and combination samples of 50 ng/ml of each hMBP with mannose added to be its concentration of 100 mM were prepared, thereafter, 100 μl of each of them were poured into each well and were incubated at 37° C. for one hour. […] After incubating them at room temperature for 30 minutes, 100 μl of 1M phosphoric acid were added thereto, and their absorbance were measured at 450 nm (Model 450 Microplate Reader; Bio-Rad). […]
# [12] = rhMBP (with Vitamin C), mannan-coated microtiter plates, read-out: I 50: Sugar concentration to halve binding activities with mannan
# [13] = rhMBP (without Vitamin C), mannan-coated microtiter plates, read-out: I 50: Sugar concentration to halve binding activities with mannan
# [14] = native hMBP, mannan-coated microtiter plates, read-out: I 50: Sugar concentration to halve binding activities with mannan
# T1 sequence (P11226 21-248): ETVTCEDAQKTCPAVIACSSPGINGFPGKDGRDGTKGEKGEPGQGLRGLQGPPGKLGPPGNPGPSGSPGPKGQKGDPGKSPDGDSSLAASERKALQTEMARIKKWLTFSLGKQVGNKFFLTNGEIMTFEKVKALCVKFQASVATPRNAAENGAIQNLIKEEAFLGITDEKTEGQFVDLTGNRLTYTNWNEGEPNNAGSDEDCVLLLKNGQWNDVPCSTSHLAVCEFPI
# T2 sequence (P11226 21-248): as above
# T3 sequence (P11226 21-248): as above
Compound,"pIC50 [1, 12]","pIC50 [2, 13]","pIC50 [3, 14]",further results
C[C@@H](O)[C@H](O)[C@H](O)[C@@H](O)C=O [D-Fucose],1.41,1.06,1.47,
O=C[C@@H](O)[C@@H](O)[C@H](O)[C@H](O)CO [D-Mannose],,,,pIC50 [1]: 2.17; pIC50 [2]: 2.17; pIC50 [3]: 2.43
O=C[C@H](O)[C@@H](O)[C@@H](O)[C@H](O)CO [Galactose],,,,pIC50 [1]: 1.53; pIC50 [2]: 1.44; pIC50 [3]: 1.62
C[C@H](O)[C@@H](O)[C@@H](O)[C@H](O)C=O [L-Fucose],2.36,2.06,2.38,
OC[C@H]1O[C@@H](O[C@H]2[C@H](O)[C@@H](O)C(O)O[C@@H]2CO)[C@H](O)[C@@H](O)[C@H]1O (stereo partly shown) [Lactose],1.33,1.23,1.44,
OC[C@H]1O[C@H](O[C@H]2[C@H](O)[C@@H](O)[C@H](O)O[C@@H]2CO)[C@H](O)[C@@H](O)[C@@H]1O [Maltose],2.19,2.13,2.13,
CC(=O)N[C@H]1C(O)O[C@H](CO)[C@H](O)[C@@H]1O (stereo partly drawn) [N-Acetyl-D-Galactosamine],< 1.00,< 1.00,< 1.00,
CC(=O)N[C@H]1C(O)O[C@H](CO)[C@@H](O)[C@@H]1O (stereo partly drawn) [N-Acetyl-D-Glucosamine],2.44,2.42,2.57,
CC(=O)N[C@@H]1C(O)O[C@H](CO)[C@@H](O)[C@@H]1O (stereo partly drawn) [N-Acetyl-D-Mannosamine],2.16,2.16,2.36,
"native hMBP: natural Human Mannan-Binding Protein, used as comparator",,,,Minimum Protein Concentration for HI Activities [4]: 40 ng/mL
rhMBP (with Vitamin C): rhMBP from CHO clone cultured in medium with vitamin C added,,,,Minimum Protein Concentration for HI Activities [4]: 80 ng/mL
rhMBP (without Vitamin C): rhMBP from CHO clone cultured in medium without vitamin C,,,,Minimum Protein Concentration for HI Activities [4]: 80 ng/mL
"rhMBP: recombinant human Mannan-Binding Protein expressed from pNOW1-hMBP in dhfr- CHO cells, purified on mannan-agarose",,,,"Neutralization activities on addition of mannose ([5]; 100 mM mannose): inhibited by addition of mannose; Neutralization activities for influenza virus (reduction rate of FFU) ([5]; FIG. 19, MDCK cells): had neutralization activities for influenza virus; Viral growth inhibition (gross area of virus-infected focus) [6]: reduced focus area infected by influenza viruses concentration-dependently; Hemolysis of sensitized sheep erythrocyte (complement activation) ([7]; 1, 10, 100 and 1000 ng/tube, FIG. 22): hemolyzed concentration-dependently sensitized sheep erythrocyte substantially like the native hMBP; Complement activation on addition of mannose ([7]; mannose added): suppressed by an addition of mannose; Binding activities to HIV-1 [8]: have binding activities; Hemagglutination Inhibition (HI) activities compared with native hMBP ([4]; Table 2 and FIG. 18): not inferior to that by native hMBP; Binding activities to Influenza A virus [9]: have binding activities; Binding activities to HBV [10]: have binding activities; Sugar binding specificities compared with native hMBP [11]: substantially identical to those by the native hMBP"
